Here are results for three compounds from PMC3376645 (Chemical Communications (Cambridge, England), 2012).

For data set [1] the following is noted: approximate; stated without experiment or reference; cited from earlier work.
The next data set concerns thrombin. As to the kind of experiment: LC-MS analysis of aliquots to determine conversion. It is filed as biochemical. The conditions noted are these: 1 mM PMSF.
The nature of data set [2]: Gelation screening in buffer by heat/cool method. It is filed as physicochemical. Conditions: buffer 100 mM PBS, 10% DMSO, pH = 7.2.

As for `Nc1ccc(C(=O)O)cc1` [PABA, p-aminobenzoic acid], in data set [1], the pKa (usually the pH at which an ionisable group is half protonated) is given as about 5.

Regarding `O=S(=O)(F)Cc1ccccc1` [PMSF], in the data set on thrombin, the “effect of thrombin inhibitor on enzymatic cleavage of compound 4” value was “decrease in the rate of enzymatic cleavage”.

Regarding PABA-F5Phe-NH2 [Compound 1], the “critical gel concentration (cgc)” value in data set [2] is given as 54 mM.
